Source: patent US10206394B2, “Herbicidal compounds” (Syngenta Participations AG, priority 2014, dated 2019)
Like-named read-outs stand apart in the source and are kept apart here.

Assays:
Assay in all cases: Glasshouse assay for herbicidal activity (pre- and post-emergence), percentage phytotoxicity
Assay type in all cases: in vivo
Avena fatua (AVEFA) = conditions: Avena fatua, 250 g/ha, visual assessment (100%=total damage, 0%=no damage)
Outline: (§1)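 Visually rated damage, 0–100%. PRE spray 1 d after sowing, scored 20 DAA; POST spray ~12 d, scored 15 DAA. Glasshouse at 65% humidity, 16 h day.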

[1] = system: Echinochloa crus-galli (ECHCG); conditions: Echinochloa crus-galli, 250 g/ha, visual assessment (100%=total damage, 0%=no damage)
Outline: as §1

[2] = system: Alopecurus myosuroides (ALOMY); conditions: Alopecurus myosuroides, 250 g/ha, visual assessment (100%=total damage, 0%=no damage)
Outline: as §1

Lolium perenne (LOLPE) = conditions: Lolium perenne, 250 g/ha, visual assessment (100%=total damage, 0%=no damage)
Outline: as §1

[3] = post-emergence, 360 h, post-emergence, 15 DAA, read-out: Post-emergence herbicidal activity (percentage phytotoxicity) AVEFA POST
[4] = pre-emergence, 480 h, pre-emergence, 20 DAA, read-out: Pre-emergence herbicidal activity (percentage phytotoxicity) AVEFA PRE
[5] = post-emergence, 360 h, post-emergence, 15 DAA, read-out: Post-emergence herbicidal activity (percentage phytotoxicity) ECHCG POST
[6] = pre-emergence, 480 h, pre-emergence, 20 DAA, read-out: Pre-emergence herbicidal activity (percentage phytotoxicity) ECHCG PRE
[7] = post-emergence, 360 h, post-emergence, 15 DAA, read-out: Post-emergence herbicidal activity (percentage phytotoxicity) ALOMY POST
[8] = pre-emergence, 480 h, pre-emergence, 20 DAA, read-out: Pre-emergence herbicidal activity (percentage phytotoxicity) ALOMY PRE
[9] = post-emergence, 360 h, post-emergence, 15 DAA, read-out: Post-emergence herbicidal activity (percentage phytotoxicity) LOLPE POST
[10] = pre-emergence, 480 h, pre-emergence, 20 DAA, read-out: Pre-emergence herbicidal activity (percentage phytotoxicity) LOLPE PRE

| SMILES | pest or weed control at 250 g/ha (Avena fatua (AVEFA); [3]) | pest or weed control at 250 g/ha (Avena fatua (AVEFA); [4]) | pest or weed control at 250 g/ha [1, 5] | pest or weed control at 250 g/ha [1, 6] | pest or weed control at 250 g/ha [2, 7] | pest or weed control at 250 g/ha [2, 8] | pest or weed control at 250 g/ha (Lolium perenne (LOLPE); [9]) | pest or weed control at 250 g/ha (Lolium perenne (LOLPE); [10]) |
| --- | --- | --- | --- | --- | --- | --- | --- | --- |
| C#Cc1cccc(CNC(=O)CC2CC(=O)C(c3c(C)cc(C)cc3C)C2=O)c1 (stereo not drawn) [Compound B86] | 100% | 60% | 90% | 80% | 70% | 70% | 100% | 90% |
| Cc1cc(-c2ncc(F)cc2C#N)cc(C)c1C1C(=O)CC(CC(=O)NC(C)(C)C)C1=O (stereo not drawn) [Compound B87] | 30% | 10% | 80% | 20% | 70% | 40% | 80% | 70% |
| Cc1cc(-c2ncc(F)cc2F)cc(C)c1C1C(=O)CC(CC(=O)NCc2cccc(C(F)(F)F)c2)C1=O (stereo not drawn) [Compound B88] | 100% | 70% | 100% | 90% | 100% | 90% | 100% | 90% |
| Cc1cc(-c2ncc(F)cc2F)cc(C)c1C1C(=O)CC(CC(=O)NCc2ccc(C(F)(F)F)cc2)C1=O (stereo not drawn) [Compound B89] | 100% | 60% | 100% | 100% | 100% | 90% | 100% | 90% |
| Cc1cc(-c2ncc(F)cc2F)cc(C)c1C1C(=O)CC(CC(=O)NCc2cccc(Br)c2)C1=O (stereo not drawn) [Compound B90] | 100% | 70% | 100% | 100% | 100% | 90% | 100% | 100% |
| COc1ccc(CNC(=O)CC2CC(=O)C(c3c(C)cc(-c4ncc(F)cc4F)cc3C)C2=O)cc1 (stereo not drawn) [Compound B91] | 100% | 70% | 100% | 80% | 100% | 80% | 100% | 90% |
| C=C(F)CNC(=O)CC1CC(=O)C(c2c(C)cc(C)cc2C)C1=O (stereo not drawn) [Compound B92] | 80% | 30% | 80% | 90% | 90% | 90% | 90% | 100% |
| Cc1cc(-c2ncc(Cl)cc2F)cc(C)c1C1C(=O)CC(CC(=O)N2CCOCC2)C1=O (stereo not drawn) [Compound B93] | 100% | 70% | 100% | 100% | 100% | 80% | 100% | 90% |
| C=C(C)CNC(=O)CC1CC(=O)C(c2c(C)cc(-c3ncc(Cl)cc3F)cc2C)C1=O (stereo not drawn) [Compound B94] | 100% | 90% | 100% | 100% | 100% | 100% | 100% | 100% |
| Cc1cc(-c2ncc(Cl)cc2F)cc(C)c1C1C(=O)CC(CC(=O)NCCF)C1=O (stereo not drawn) [Compound B95] | 100% | 100% | 100% | 100% | 100% | 100% | 100% | 100% |
| CONC(=O)CC1CC(=O)C(c2c(C)cc(C)cc2C)C1=O (stereo not drawn) [Compound B96] | 60% | 0% | 90% | 30% | 20% | 0% | 80% | 80% |
| Cc1cc(C)c(C2C(=O)CC(CC(=O)NC3CC3C(F)(F)F)C2=O)c(C)c1 (stereo not drawn) [Compound B97] | 50% | 0% | 80% | 90% | 70% | 80% | 70% | 80% |
| Cc1cc(C)c(C2C(=O)CC(CC(=O)NC3CC3(F)F)C2=O)c(C)c1 (stereo not drawn) [Compound B98] | 20% | 0% | 60% | 80% | 60% | 60% | 80% | 90% |
| Cc1cc(-c2cc(C#N)c(F)cn2)cc(C)c1C1C(=O)CC(CC(=O)NC(C)(C)C)C1=O (stereo not drawn) [Compound B99] | 20% | 30% | 80% | 70% | 70% | 70% | 80% | 80% |
| Cc1cc(-c2ncc(F)cc2F)cc(C)c1C1C(=O)CC(CC(=O)NCc2ccc(Br)cc2)C1=O (stereo not drawn) [Compound B100] | 100% | 60% | 100% | 100% | 100% | 80% | 100% | 90% |
| Cc1cc(-c2ncc(F)cc2F)cc(C)c1C1C(=O)CC(CC(=O)N2CCOCC2)C1=O (stereo not drawn) [Compound B101] | 90% | 70% | 100% | 100% | 90% | 90% | 100% | 100% |
| C=C(Br)CNC(=O)CC1CC(=O)C(c2c(C)cc(C)cc2C)C1=O (stereo not drawn) [Compound B102] | 60% | 0% | 60% | 80% | 60% | 60% | 90% | 100% |
| CCNC(=O)CC1CC(=O)C(c2c(C)cc(-c3ncc(Cl)cc3F)cc2C)C1=O (stereo not drawn) [Compound B103] | 100% | 90% | 100% | 100% | 100% | 100% | 100% | 100% |
| Cc1cc(-n2ncc(Cl)c2C)cc(C)c1C1C(=O)CC(CC(=O)NC(C)(C)C)C1=O (stereo not drawn) [Compound B104] | 80% | 10% | 70% | 20% | 80% | 40% | 70% | 10% |
| Cc1cc(-n2cc(Cl)c(C)n2)cc(C)c1C1C(=O)CC(CC(=O)NC(C)(C)C)C1=O (stereo not drawn) [Compound B105] | 60% | 20% | 100% | 100% | 70% | 70% | 60% | 70% |
| COCCCNC(=O)CC1CC(=O)C(c2c(C)cc(-c3ncc(F)cn3)cc2C)C1=O (stereo not drawn) [Compound B106] | 100% | 70% | 100% | 100% | 100% | 80% | 100% | 90% |
